Read-outs that look alike come from different tables or passages of the source.
How the values were obtained:
[1] = target: T1, βA(1-40) amyloid aggregates (Homo sapiens, UniProt P05067); experiment: Competition assay with Thioflavin T (ThT) for binding to β(1-40) amyloid aggregates, fluorescence 96-well plate
T1 construct: lyophilized β(1-40) protein powder (which may be purchased from BACHEM); purchased BACHEM
Source text: Amyloid aggregates containing β(1-40) protein can also be made by methods well known to those skilled in the art. See, for example, Burdick D., Soreghan B., Kwon M., Kosmoski J., Knauer M., Henschen A., Yates J., Cotman C., and Glabe C. Assembly and aggregation properties of synthetic Alzheimer's A4/β amyloid peptide analogs. J. Biol. Chem., 267:546-554 (1992), which is hereby incorporated by reference. Briefly, lyophilized β(1-40) protein powder (which may be purchased from BACHEM) was dissolved at 10 mg/mL in hexafluoro-2-propanol and subsequently diluted to 500 μg/mL in 25 mM sodium phosphate buffer, pH 6 to induce the α-helix to β-sheet transition resulting in aggregate formation.
(§1) The ability of compounds of Formula I to compete with Thioflavin T (ThT) for binding to amyloid aggregates was measured using fluorescence in a 96-well fluorescence plate assay. As a compromise between sensitivity and signal and to facilitate comparisons between different amyloid fibrils, ThT is present at a concentration equal to the Kmapp of the particular amyloid fibril type and fibril concentrations yielding a similar fluorescence intensity are used. Insulin: 0.5 μM ThT, 2 μg per well. β(1-40): 20 μM ThT, 5 μg/well. All solutions are in 25 mM sodium phosphate buffer, pH 6.0, and the assay is performed at room temperature.
(§2) Using a multichannel pipettor, 100 μL of dilutions of the compound to be tested (0.001-30 μM final concentration in 3-fold steps) are placed in the bottom of Corning U-well polystyrene plates (Corning Company, Corning, N.Y.). 50 μL of ThT are then added to each well. The amyloid fibrils are then added to each well in a volume of 100 μL rapidly to mix the well contents. The plates are read within 5 to 30 minutes in a Millipore Cytofluor 2350 96-well fluorescence plate reader using an excitation filter of 440 nm (20 nm bandpass) and an emission filter of 485 nm (20 nm bandpass). ThT dye blanks were used to correct for the minimal fluorescence background which are subtracted from all data.
(§3) Results are expressed as % maximal fluorescence (no competing compound). […]

[2] = target: Insulin amyloid aggregates; experiment: Competition assay with Thioflavin T (ThT) for binding to insulin amyloid aggregates, fluorescence 96-well plate; details: 0.5 μM ThT, 2 μg per well fibrils, 25 mM sodium phosphate pH 6.0, room temperature
Procedure: Burke M. J. and Rougevie M. A., Cross-β Protein Structures. I. Insulin Fibrils. […] Briefly, lyophilized insulin protein powder dissolved at 10 mg/mL in 50 mM HCl was alternately heated to 95° C. and frozen in dry ice to form amyloid aggregates.
as §1
as §2, with “The plates are read within 5 to 30 minutes in a Millipore Cytofluor 2350 96-well fluorescence plate reader using an excitation filter of 440 nm (20 nm bandpass) and an emission filter of 485 nm (20 nm bandpass).” left out
as §3

[3] = 20 μM ThT, 5 μg/well fibrils, 25 mM sodium phosphate pH 6.0, room temperature, read-out: βA(1-40), IC50

T1 sequence (P05067 672-711 limits assumed): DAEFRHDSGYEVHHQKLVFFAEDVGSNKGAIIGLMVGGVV

| IC50 [1, 3] [nM] | IC50 [2] [nM] | Structure (SMILES) | IC50 [1] [nM] |
| --- | --- | --- | --- |
| 400 | 7.5 | Cc1ccc2sc(/C=C/c3ccc(N(C)C)cc3)[n+](C)c2c1 [Example 16, (E)-2-[2-(4-Dimethylaminophenyl)vinyl]-3,5-dimethylbenzothiazol-3-ium iodide] | – |
| – | 1500 | Cc1ccc2nc(/C=C/c3ccc(N(C)C)cc3)sc2c1 [Example 4, (E)-Dimethyl-{4-[2-(6-methylbenzothiazol-2-yl)vinyl]phenyl}amine] | – |
| 120 | 120 | CN(C)c1ccc(/C=C/c2sc3cc4ccccc4cc3[n+]2C)cc1 [Example 23, (E)-2-[2-(4-Dimethylaminophenyl)vinyl]-3-methylnaphtho[2,3-d]thiazol-3-ium iodide] | – |
| 120 | 52 | CN(C)c1ccc(/C=C/c2sc3ccccc3[n+]2CCC2CCCCC2)cc1 [Example 38, (E)-3-(2-Cyclohexylethyl)-2-[2-(4-dimethylaminophenyl)vinyl]benzothiazol-3-ium iodide] | – |
| 160 | 40 | CCCCCCC[n+]1c(/C=C/c2ccc(N(C)C)c3ccccc23)sc2ccccc21 [Example 39, (E)-2-[2-(4-Dimethylaminonaphthalen-1-yl)vinyl]-3-heptylbenzothiazol-3-ium iodide] | – |
| 140 | 52 | CN(C)c1ccc(/C=C/c2sc3ccccc3[n+]2CCCOCc2ccccc2)cc1 [Example 34, (E)-3-(3-Benzyloxypropyl)-2-[2-(4-dimethylaminophenyl)vinyl]benzothiazol-3-ium iodide] | – |
| 3200 | 700 | COc1ccc2nc(/N=N/c3ccc(N(C)C)cc3)sc2c1 [Example 49, 2-[[4-(Dimethylamino)phenyl]azo]-6-methoxybenzothiazole] | – |
| 170 | – | CN(C)c1ccc(/C=C/c2sc3ccccc3[n+]2CCCCCc2ccccc2)cc1 [Example 36, (E)-2-[2-(4-Dimethylaminophenyl)vinyl]-3-(5-phenylpentyl)benzothiazol-3-ium iodide] | – |
| 1300 | 60 | CN(C)c1ccc(N=Nc2sc3ccccc3[n+]2C)cc1 [Example 54, 2-[[4-(Dimethylamino)phenyl]azo]-3-methylbenzothiazolium methylsulfate] | – |
| 1000 | – | CN(C)c1ccc(/C=C/c2sc3ccccc3[n+]2C)cc1 [Example 9, (E)-2-[2-(4-Dimethylaminophenyl)vinyl]-3-methylbenzothiazol-3-ium iodide] | – |
| 140 | 40 | CCCCCCC[n+]1c(/C=C/c2ccc(N(C)C)cc2)sc2cc(OC)ccc21 [Example 20, (E)-2-[2-(4-Dimethylaminophenyl)vinyl]-3-heptyl-6-methoxybenzothiazol-3-ium iodide] | – |
| 140 | 120 | CCCCCCC[n+]1c(/C=C/c2ccc(N(CC)CC)cc2)sc2ccccc21 [Example 44, (E)-2-[2-(4-Diethylaminophenyl)vinyl]-3-heptylbenzothiazol-3-ium iodide] | – |
| 300 | – | COc1ccc2c(c1)sc(/C=C/c1ccc(N(C)C)cc1)[n+]2C [Example 19, (E)-2-[2-(4-Dimethylaminophenyl)vinyl]-6-methoxy-3-methylbenzothiazol-3-ium iodide] | – |
| 93 | – | CCCCCCC[n+]1c(/C=C/c2ccc(N(C)C)cc2)sc2ccccc21 [Example 12, (E)-2-[2-(4-Dimethylaminophenyl)vinyl]-3-heptylbenzothiazol-3-ium iodide] | – |
| 210 | 53 | CN(C)c1ccc(/C=C/c2[s+]c3ccc4ccccc4c3n2C)cc1 [Example 8, (E)-2-[2-(4-Dimethylaminophenyl)vinyl]-1-methylnaphtho[1,2-d]thiazol-3-ium iodide] | – |
| 200 | 210 | CN(C)c1ccc(/C=C/c2sc3ccccc3[n+]2CCCc2ccccc2)cc1 [Example 31, (E)-2-[2-(4-Dimethylaminophenyl)vinyl]-3-(3-phenylpropyl)benzothiazol-3-ium iodide] | – |
| 600 | 90 | CCCCCCC[n+]1c(/C=C/c2ccc(N(CCCC)CCCC)cc2)sc2ccccc21 [Example 45, (E)-2-[2-(4-Dibutylaminophenyl)vinyl]-3-heptylbenzothiazol-3-ium iodide] | – |
| 170 | – | CN(C)c1ccc(/C=C/c2sc3ccccc3[n+]2CCCCOc2ccccc2)cc1 [Example 35, (E)-2-[2-(4-Dimethylaminophenyl)vinyl]-3-(4-phenoxybutyl)benzothiazol-3-ium iodide] | – |
| 120 | 110 | Nc1ccc(/N=N/c2nc3ccccc3s2)c2ccccc12 [Example 48, 4-(Benzothiazol-2-ylazo)naphthalen-1-ylamine] | – |
| – | 80 | CN(C)c1ccc(/C=C/c2sc3ccccc3[n+]2C/C=C/c2ccccc2)cc1 [Example 32, (E,E)-2-[2-(4-Dimethylaminophenyl)vinyl]-3-(3-phenylallyl)benzothiazol-3-ium bromide] | – |
| 22000 | – | CN(C)c1ccc(/N=N/c2nc3ccccc3s2)cc1 [Example 47, [4-(Dimethylamino)phenylazo]benzothiazole] | – |
| – | 80 | CN(C)c1ccc(/C=C/c2sc3ccccc3[n+]2Cc2ccccc2-c2ccccc2)cc1 [Example 28, (E)-3-Biphenyl-2-ylmethyl-2-[2-(4-dimethylaminophenyl)vinyl]benzothiazol-3-ium bromide] | – |
| – | 900 | Cc1ccc2sc(/C=C/c3ccc(N(C)C)cc3)nc2c1 [Example 3, (E)-Dimethyl-{4-[2-(5-methylbenzothiazol-2-yl)vinyl]phenyl}amine] | – |
| – | 16000 | CN(C)c1ccc(/N=N/c2nc3c(ccc4ccccc43)s2)c2ccccc12 [Example 52, Dimethyl[4-(naphtho[1,2-d]thiazol-2-ylazo)naphthalen-1-yl]amine] | – |
| > 100000 | – | CN(C)c1ccc(/C=C/c2nc3ccc(N(C)C)cc3s2)cc1 [Example 5, (E)-{2-[2-(4-Dimethylaminophenyl)vinyl]benzothiazol-6-yl}dimethylamine] | – |
| 1000 | – | CN(C)c1ccc(/C=C/c2sc3ccc(F)cc3[n+]2C)cc1 [Example 14, (E)-2-[2-(4-Dimethylaminophenyl)vinyl]-5-fluoro-3-methylbenzothiazol-3-ium iodide] | – |
| > 100000 | – | CN(C)c1ccc(/C=C/c2nc3ccccc3s2)cc1 [Example 2, (E)-{4-[2-(Benzothiazol-2-yl)vinyl]phenyl}dimethylamine] | – |

| Structure (SMILES) | IC50 [1, 3] [nM] | IC50 [2] [nM] | IC50 [1] [nM] |
| --- | --- | --- | --- |
| Cc1ccc2c(c1)sc(/C=C/c1ccc(N(C)C)cc1)[n+]2Cc1ccccc1 [Example 18, (E)-3-Benzyl-2-[2-(4-dimethylaminophenyl)vinyl]-6-methylbenzothiazol-3-ium bromide] | – | 50 | 130 |
| CN(C)c1ccc(/C=C/c2sc3ccccc3[n+]2Cc2cccc(Oc3ccccc3)c2)cc1 [Example 30, (E)-2-[2-(4-Dimethylaminophenyl)vinyl]-3-(3-phenoxybenzyl)benzothiazol-3-ium bromide] | – | 180 | 120 |
| CN(C)c1ccc(/C=C/c2sc3ccccc3[n+]2Cc2ccc3ccccc3c2)cc1 [Example 27, (E)-2-[2-(4-Dimethylaminophenyl)vinyl]-3-naphthalen-2-ylmethylbenzothiazol-3-ium bromide] | – | 13 | 120 |
| C=CC[n+]1c(/C=C/c2ccc(N(C)C)cc2)sc2ccccc21 [Example 10, (E)-2-[2-(4-Dimethylaminophenyl)vinyl]-3-allylbenzothiazol-3-ium bromide] | – | 12 | 300 |
| CCn1c(/C=C/c2ccc(N(C)C)cc2)[s+]c2ccc3ccccc3c21 [Example 22, (E)-2-[2-(4-Dimethylaminophenyl)vinyl]-1-ethylnaphtho[1,2-d]thiazol-3-ium toluene-4-sulfonate] | 210 | 41 | – |
| CN(C)c1ccc(/C=C/c2sc3ccccc3[n+]2Cc2ccc(F)cc2)cc1 [Example 25, (E)-2-[2-(4-Dimethylaminophenyl)vinyl]-3-(4-fluorobenzyl)benzothiazol-3-ium bromide] | – | 42 | 120 |
